Among the test systems are 786-0; RXF 393; OVCAR-8; BT-549; MDA-MB-231; PC-3; IGROV-1; MDA-MB-435; UACC-257; SNB-19; SN12C; OVCAR-5; HCT-15; T47D; MDA-N.
What all share (assay): NCI-60 cell line screen, 48 h

From ChEMBL document CHEMBL1201862, “PubChem BioAssay data set” (2004) come the findings set out here.

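48-hour exposure; five concentrations; linearly interpolated endpoints. Here, GI50 denotes the concentration required for 50% inhibition of growth.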 Activity calls are given as the source filed them. Rule as the data show it: active = GI50 up to about 1.1 µM and inactive = higher.

As for `CCOC(=O)c1c(Br)c(-c2ccc(OC)cc2)c(Br)n1C`, the GI50 in the assay with 786-0 is 21.6 µM (inactive); in the assay on RXF 393, 17.3 µM (inactive); in the assay on OVCAR-8, 27.1 µM (inactive); in the assay on BT-549, 22.4 µM (inactive); in the assay with MDA-MB-231 it was 17 µM (inactive); in the assay on PC-3 it was 11.1 µM (inactive). The GI50 was 22.2 µM (inactive) in the assay with IGROV-1; 2.37 µM (inactive) in the assay on MDA-MB-435; 23.2 µM (inactive) in the assay with UACC-257; 34.9 µM (inactive) in the assay with SNB-19; 12.9 µM (inactive) with SN12C; 72.3 µM (inactive) in the assay on OVCAR-5. For the same compound, the GI50 is 8.61 µM in the assay with HCT-15 and 13.4 µM (inactive) in the assay on T47D.

With `C=CCC1(Sc2ccccn2)Sc2ccc3ccccc3c2-c2c(ccc3ccccc23)S1`, the GI50 in the assay with 786-0, in the assay on RXF 393, with OVCAR-8, in the assay on MDA-MB-231, in the assay on PC-3 and in the assay on IGROV-1 was > 100 µM (inactive) each time. The GI50 in the assay on MDA-MB-435 is > 100 µM (inactive); with UACC-257 it was > 100 µM (inactive); in the assay on SNB-19, > 100 µM (inactive); in the assay on SN12C, > 100 µM (inactive); in the assay with OVCAR-5 it was > 100 µM (inactive); in the assay on HCT-15, more than 100 µM. Also, the GI50 with T47D was > 100 µM (inactive).

For `O=c1[nH]c2cc(C(F)(F)F)ccc2nc1Cc1ccccc1`, the GI50 was 36.6 µM (inactive) in the assay with 786-0; 37.7 µM (inactive) in the assay on RXF 393; 80.2 µM (inactive) with OVCAR-8; > 100 µM (inactive) in the assay on BT-549; 30.8 µM (inactive) in the assay on MDA-MB-231; > 100 µM (inactive) with PC-3. The GI50 was 46.7 µM (inactive) with IGROV-1; > 100 µM (inactive) in the assay on MDA-MB-435; > 100 µM (inactive) with UACC-257; 66.2 µM (inactive) with SNB-19; more than 100 µM in the assay with HCT-15; 38.5 µM (inactive) in the assay on T47D.

In the case of `CN1CN(c2ccccc2)C2(CCN(CCc3csc4ccccc34)CC2)C1=O`, the GI50 in the assay with 786-0 was 14.5 µM (inactive); in the assay with RXF 393, 12.6 µM (inactive); with OVCAR-8, 21.4 µM (inactive); in the assay with BT-549, 4.71 µM (inactive); in the assay with MDA-MB-231, > 10 µM (inactive); with PC-3, 12 µM (inactive). Also, the GI50 in the assay on IGROV-1 was 21.7 µM (inactive); with MDA-MB-435, 14.4 µM (inactive); in the assay with UACC-257 it was 14.4 µM (inactive); in the assay with SNB-19 it was 20.2 µM (inactive); with SN12C, 15.6 µM (inactive); with OVCAR-5, 11.9 µM (inactive). The values for the GI50 in the assay on HCT-15 and in the assay with T47D were 10.7 µM and 18.3 µM (inactive), respectively.

Turning to `CS/C(=N\C#N)NC1CC(n2cc(C)c(=O)[nH]c2=O)OC1CO` (stereo unspecified), the GI50 with 786-0, in the assay with RXF 393, with OVCAR-8, with MDA-N, with MDA-MB-231 and in the assay on PC-3 was > 100 µM (inactive) each time. Also, the GI50 in the assay with IGROV-1, in the assay on MDA-MB-435, with UACC-257, with SNB-19, in the assay with SN12C and with OVCAR-5 was > 100 µM (inactive) throughout. In addition, the values for the GI50 in the assay with HCT-15 and in the assay with T47D were more than 100 µM and > 100 µM (inactive), respectively.

Consider `O=C([O-])C(O)C(O)C(O)C(O)C(=O)O.[K+]` (stereo unspecified), for which the GI50 with 786-0, in the assay with RXF 393, in the assay with OVCAR-8, in the assay with MDA-N, with MDA-MB-231 and with PC-3 was > 100 µM (inactive) throughout. In addition, the GI50 with IGROV-1, in the assay with MDA-MB-435, with UACC-257, with SNB-19, in the assay on SN12C and with OVCAR-5 was > 100 µM (inactive) each time. For the same compound, the GI50 in the assay on HCT-15 was more than 100 µM; in the assay with T47D, > 100 µM (inactive).
